pIC50: −log10 of the molar value.
What was measured:
Test in all cases: cells
[1] = system: SW982; assay type: functional, cell-based; settings: Homo sapiens;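 further: growth inhibition of SW982 cells, read out with a cell viability assay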
Description: SANGER: Inhibition of human SW982 cell growth in a cell viability assay.

[2] = system: TE-8; assay type: functional, cell-based, Homo sapiens; settings: Homo sapiens, TE-8;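 further: growth inhibition of TE-8 cells, measured with a cell viability readout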
Description: SANGER: Inhibition of human TE-8 cell growth in a cell viability assay.

[3] = system: HCC1937; assay type: functional, cell-based, Homo sapiens; settings: Homo sapiens, HCC1937;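 further: growth inhibition measured with a cell viability read-out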
Description: SANGER: Inhibition of human HCC1937 cell growth in a cell viability assay.

[4] = system: GOTO; assay type: functional, cell-based, Homo sapiens; settings: Homo sapiens, GOTO;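 further: growth inhibition of GOTO cells, read out by a cell viability assay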
Description: SANGER: Inhibition of human GOTO cell growth in a cell viability assay.

[5] = system: PFSK-1; assay type: functional, cell-based, Homo sapiens; settings: Homo sapiens, PFSK-1;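 further: cell viability assay measuring how strongly compounds suppress growth of human PFSK-1 cells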
Description: SANGER: Inhibition of human PFSK-1 cell growth in a cell viability assay.

[6] = system: ES3; assay type: functional, cell-based, Homo sapiens; settings: Homo sapiens, ES3;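 further: growth inhibition of ES3 cells, read out with a cell viability assay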
Description: SANGER: Inhibition of human ES3 cell growth in a cell viability assay.

[7] = system: NCI-H1092; assay type: functional, cell-based; settings: Homo sapiens;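 further: cell growth inhibition measured with a cell viability assay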
Description: SANGER: Inhibition of human NCI-H1092 cell growth in a cell viability assay.

[8] = system: NCI-H2452; assay type: functional, cell-based, Homo sapiens; settings: Homo sapiens, NCI-H2452;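 further: growth inhibition of NCI-H2452 cells, read out with a cell viability assay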
Description: SANGER: Inhibition of human NCI-H2452 cell growth in a cell viability assay.

[9] = system: SCC-4; assay type: functional, cell-based, Homo sapiens; settings: Homo sapiens, SCC-4;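 further: growth inhibition of human SCC-4 cells, read out as cell viability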
Description: SANGER: Inhibition of human SCC-4 cell growth in a cell viability assay.

[10] = system: 769-P; assay type: functional, cell-based, Homo sapiens; settings: Homo sapiens, 769-P
Description: SANGER: Inhibition of human 769-P cell growth in a cell viability assay.

[11] = system: GCIY; assay type: functional, cell-based, Homo sapiens; settings: Homo sapiens, GCIY;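 further: growth inhibition of the human GCIY cell line, read out by a cell viability assay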
Description: SANGER: Inhibition of human GCIY cell growth in a cell viability assay.

[12] = system: HPAF-II; assay type: functional, cell-based, Homo sapiens; settings: Homo sapiens, HPAF-II;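 further: growth inhibition of HPAF-II cells, read out with a cell viability assay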
Description: SANGER: Inhibition of human HPAF-II cell growth in a cell viability assay.

[13] = system: HCC1395; assay type: functional, cell-based, Homo sapiens; settings: Homo sapiens, HCC1395;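 further: growth inhibition of HCC1395 cells, read out by a cell viability assay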
Description: SANGER: Inhibition of human HCC1395 cell growth in a cell viability assay.

[14] = system: OAW-28; assay type: functional, cell-based, Homo sapiens; settings: Homo sapiens, OAW-28;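 further: growth inhibition of OAW-28 cells, read out with a cell viability assay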
Description: SANGER: Inhibition of human OAW-28 cell growth in a cell viability assay.

[15] = system: NCI-N87; assay type: functional, cell-based, Homo sapiens; settings: Homo sapiens, NCI-N87;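 further: growth inhibition of human NCI-N87 cells, read out with a cell viability assay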
Description: SANGER: Inhibition of human NCI-N87 cell growth in a cell viability assay.

[16] = system: A2058; assay type: functional, cell-based; settings: Homo sapiens;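 further: reduction of A2058 cell growth, read out with a viability assay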
Description: SANGER: Inhibition of human A2058 cell growth in a cell viability assay.

[17] = system: HuCCT-1; assay type: functional, cell-based, Homo sapiens, HuCCT1; settings: Homo sapiens, HuCCT-1;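 further: growth inhibition of HuCCT-1 cells, read out by a cell viability assay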
Description: SANGER: Inhibition of human HuCCT1 cell growth in a cell viability assay.

[18] = system: P12-Ichikawa; assay type: functional, cell-based; settings: Homo sapiens
[19] = system: GT3TKB; assay type: functional, cell-based, Homo sapiens; settings: Homo sapiens, GT3TKB;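 further: growth inhibition of the cell line, read out with a cell viability assay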
Description: SANGER: Inhibition of human GT3TKB cell growth in a cell viability assay.

[20] = system: SBC-1; assay type: functional, cell-based; settings: Homo sapiens;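 further: cell viability assay measuring growth inhibition of the SBC-1 cell line, IC50 being the concentration that halves growth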
Description: SANGER: Inhibition of human SBC-1 cell growth in a cell viability assay.

[21] = system: CAS-1; assay type: functional, cell-based, Homo sapiens; settings: Homo sapiens, CAS-1;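 further: growth inhibition of CAS-1 cells, measured with a cell viability assay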
Description: SANGER: Inhibition of human CAS-1 cell growth in a cell viability assay.

[22] = system: T84; assay type: functional, cell-based, Homo sapiens; settings: Homo sapiens, T84;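 further: growth inhibition measured with a cell viability readout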
Description: SANGER: Inhibition of human T84 cell growth in a cell viability assay.

[23] = system: NCI-H1299; assay type: functional, cell-based, Homo sapiens; settings: Homo sapiens, NCI-H1299;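 further: growth inhibition of human NCI-H1299 cells, read out by a cell viability assay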
Description: SANGER: Inhibition of human NCI-H1299 cell growth in a cell viability assay.

[24] = system: RS4-11; assay type: functional, cell-based; settings: Homo sapiens;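 further: growth inhibition of RS4-11 cells, read out by a cell viability assay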
Description: SANGER: Inhibition of human RS4-11 cell growth in a cell viability assay.

[25] = system: CAL-39; assay type: functional, cell-based, Homo sapiens; settings: Homo sapiens, CAL-39;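 further: cell viability assay measuring growth inhibition of CAL-39 cells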
Description: SANGER: Inhibition of human CAL-39 cell growth in a cell viability assay.

[26] = system: HCC1419; assay type: functional, cell-based, Homo sapiens; settings: Homo sapiens, HCC1419;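 further: growth inhibition of human HCC1419 cells, read out as cell viability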
Description: SANGER: Inhibition of human HCC1419 cell growth in a cell viability assay.

[27] = system: MKN-1; assay type: functional, cell-based, Homo sapiens; settings: Homo sapiens, MKN-1;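 further: growth inhibition of human MKN1 cells, read out by a cell viability measurement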
Description: SANGER: Inhibition of human MKN1 cell growth in a cell viability assay.

[28] = system: KYSE-270; assay type: functional, cell-based, Homo sapiens; settings: Homo sapiens, KYSE-270;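 further: cell growth inhibition measured with a viability assay in the human KYSE-270 line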
Description: SANGER: Inhibition of human KYSE-270 cell growth in a cell viability assay.

[29] = system: RO82-W-1; assay type: functional, cell-based, Homo sapiens; settings: Homo sapiens, RO82-W-1;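 further: growth inhibition of human RO82-W-1 cells, measured with a cell viability assay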
Description: SANGER: Inhibition of human RO82-W-1 cell growth in a cell viability assay.

[30] = system: KYSE-140; assay type: functional, cell-based, Homo sapiens; settings: Homo sapiens, KYSE-140;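 further: cell viability assay measuring growth inhibition in human KYSE-140 cells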
Description: SANGER: Inhibition of human KYSE-140 cell growth in a cell viability assay.

[31] = system: CAL-120; assay type: functional, cell-based, Homo sapiens; settings: Homo sapiens, CAL-120;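 further: cell growth inhibition, read out as cell viability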
Description: SANGER: Inhibition of human CAL-120 cell growth in a cell viability assay.

[32] = system: MHH-NB-11; assay type: functional, cell-based, Homo sapiens; settings: Homo sapiens, MHH-NB-11;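 further: growth inhibition of human MHH-NB-11 cells, read out by a cell viability assay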
Description: SANGER: Inhibition of human MHH-NB-11 cell growth in a cell viability assay.

[33] = system: SCC-15; assay type: functional, cell-based, Homo sapiens; settings: Homo sapiens, SCC-15;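 further: growth inhibition of SCC-15 cells, read out with a cell viability assay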
Description: SANGER: Inhibition of human SCC-15 cell growth in a cell viability assay.

[34] = system: GR-ST; assay type: functional, cell-based; settings: Homo sapiens
Description: SANGER: Inhibition of human GR-ST cell growth in a cell viability assay.

[35] = system: MS-1; assay type: functional, cell-based; settings: Homo sapiens;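 further: growth inhibition of MS-1 cells, read out by cell viability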
Description: SANGER: Inhibition of human MS-1 cell growth in a cell viability assay.

[36] = system: SKG-IIIa; assay type: functional, cell-based, Homo sapiens; settings: Homo sapiens, SKG-IIIa;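 further: cell growth inhibition, read out with a cell viability assay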
Description: SANGER: Inhibition of human SKG-IIIa cell growth in a cell viability assay.

[37] = system: SK-N-DZ; assay type: functional, cell-based, Homo sapiens; settings: Homo sapiens, SK-N-DZ;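 further: growth inhibition of the cancer cell line, read out through a viability assay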
Description: SANGER: Inhibition of human SK-N-DZ cell growth in a cell viability assay.

[38] = system: SBC-5; assay type: functional, cell-based, Homo sapiens; settings: Homo sapiens, SBC-5;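 further: cell viability assay read-out, IC50 is the concentration that inhibits growth of the cells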
Description: SANGER: Inhibition of human SBC-5 cell growth in a cell viability assay.

[39] = system: GB-1; assay type: functional, cell-based, Homo sapiens; settings: Homo sapiens, GB-1;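 further: growth of GB-1 cells judged by a viability assay, IC50 marks the concentration inhibiting growth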
Description: SANGER: Inhibition of human GB-1 cell growth in a cell viability assay.

[40] = system: 697; assay type: functional, cell-based; settings: Homo sapiens
Description: SANGER: Inhibition of human 697 cell growth in a cell viability assay.

[41] = system: TE-6; assay type: functional, cell-based, Homo sapiens; settings: Homo sapiens, TE-6;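 further: growth inhibition of TE-6 cells, read out with a cell viability assay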
Description: SANGER: Inhibition of human TE-6 cell growth in a cell viability assay.

[42] = system: NCI-H661; assay type: functional, cell-based, Homo sapiens; settings: Homo sapiens, NCI-H661;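 further: cell viability assay read-out, IC50 being the concentration that inhibits growth of the cells by half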
Description: SANGER: Inhibition of human NCI-H661 cell growth in a cell viability assay.

[43] = system: EW-13; assay type: functional, cell-based; settings: Homo sapiens;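 further: growth inhibition of EW-13 cells, read out with a cell viability assay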
Description: SANGER: Inhibition of human EW-13 cell growth in a cell viability assay.

[44] = system: HuP-T4; assay type: functional, cell-based, Homo sapiens; settings: Homo sapiens, HuP-T4;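 further: cell viability assay measuring how much HuP-T4 cell growth is inhibited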
Description: SANGER: Inhibition of human HuP-T4 cell growth in a cell viability assay.

[45] = system: COLO-680N; assay type: functional, cell-based, Homo sapiens; settings: Homo sapiens, COLO-680N;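 further: cell viability assay used to measure inhibition of COLO-680N cell growth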
Description: SANGER: Inhibition of human COLO-680N cell growth in a cell viability assay.

[46] = system: KP-N-YS; assay type: functional, cell-based; settings: Homo sapiens;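 further: cell viability assay measuring inhibition of cell line growth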
Description: SANGER: Inhibition of human KP-N-YS cell growth in a cell viability assay.

[47] = system: CHL-1; assay type: functional, cell-based, Homo sapiens; settings: Homo sapiens, CHL-1;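 further: cell growth inhibition, read out with a cell viability assay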
Description: SANGER: Inhibition of human CHL-1 cell growth in a cell viability assay.

[48] = system: MDA-MB-231; assay type: functional, cell-based, Homo sapiens; settings: Homo sapiens, MDA-MB-231
Description: SANGER: Inhibition of human MDA-MB-231 cell growth in a cell viability assay.

[49] = system: U-266; assay type: functional, cell-based; settings: Homo sapiens
Description: SANGER: Inhibition of human U-266 cell growth in a cell viability assay.

[50] = system: OVCAR-5; assay type: functional, cell-based, Homo sapiens; settings: Homo sapiens, OVCAR-5;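 further: growth inhibition of human OVCAR-5 cells, read out with a cell viability assay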
Description: SANGER: Inhibition of human OVCAR-5 cell growth in a cell viability assay.

[51] = system: HC-1; assay type: functional, cell-based; settings: Homo sapiens;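 further: growth inhibition of HC-1 cells measured by a cell viability assay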
Description: SANGER: Inhibition of human HC-1 cell growth in a cell viability assay.

[52] = system: MMAC-SF; assay type: functional, cell-based, Homo sapiens; settings: Homo sapiens, MMAC-SF;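 further: growth inhibition of human MMAC-SF cells, read out with a cell viability assay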
Description: SANGER: Inhibition of human MMAC-SF cell growth in a cell viability assay.

COc1cc(F)c(F)c(Nc2ccc(I)cc2F)c1NS(=O)(=O)C1(CC(O)CO)CC1 (stereo not given)
pIC50 [1]: 6.36
pIC50 [2]: 5.95
pIC50 [3]: < 5.30
pIC50 [4]: < 5.30
pIC50 [5]: < 5.30
pIC50 [6]: < 5.30
pIC50 [7]: < 5.30
pIC50 [8]: < 5.30
pIC50 [9]: 5.30
pIC50 [10]: < 5.30
pIC50 [11]: 5.93
pIC50 [12]: 5.99
pIC50 [13]: < 5.30
pIC50 [14]: < 5.30
pIC50 [15]: < 5.30
pIC50 [16]: 5.42
pIC50 [17]: 6.04
pIC50 [18]: 5.75
pIC50 [19]: < 5.30
pIC50 [20]: < 5.30
pIC50 [21]: < 5.30
pIC50 [22]: < 5.30
pIC50 [23]: < 5.30
pIC50 [24]: < 5.30
pIC50 [25]: 6.38
pIC50 [26]: < 5.30
pIC50 [27]: < 5.30
pIC50 [28]: < 5.30
pIC50 [29]: < 5.30
pIC50 [30]: 5.54
pIC50 [31]: < 5.30
pIC50 [32]: 5.97
pIC50 [33]: < 5.30
pIC50 [34]: < 5.30
pIC50 [35]: < 5.30
pIC50 [36]: < 5.30
pIC50 [37]: < 5.30
pIC50 [38]: < 5.30
pIC50 [39]: 5.44
pIC50 [40]: < 5.30
pIC50 [41]: < 5.30
pIC50 [42]: < 5.30
pIC50 [43]: < 5.30
pIC50 [44]: 6.29
pIC50 [45]: < 5.30
pIC50 [46]: < 5.30
pIC50 [47]: 5.93
pIC50 [48]: 5.95
pIC50 [49]: < 5.30
pIC50 [50]: 6.63

COc1ccc(-c2ccc3c(N4CCOC[C@@H]4C)nc(N4CCOC[C@@H]4C)nc3n2)cc1CO [AZD-8055]
pIC50 [1]: 6.16
pIC50 [2]: 5.84
pIC50 [3]: < 5.70
pIC50 [4]: 5.76
pIC50 [5]: 6.08
pIC50 [6]: 5.95
pIC50 [7]: 5.95
pIC50 [8]: 6.21
pIC50 [9]: 6.23
pIC50 [10]: < 5.70
pIC50 [11]: 6.34
pIC50 [12]: 6.09
pIC50 [13]: < 5.70
pIC50 [14]: < 5.70
pIC50 [15]: < 5.70
pIC50 [16]: 6.01
pIC50 [17]: < 5.70
pIC50 [18]: 5.99
pIC50 [19]: < 5.70
pIC50 [20]: 7.34
pIC50 [21]: < 5.70
pIC50 [22]: < 5.70
pIC50 [23]: 5.82
pIC50 [24]: 6.12
pIC50 [25]: 6.28
pIC50 [26]: 6.06
pIC50 [27]: < 5.70
pIC50 [28]: 5.80
pIC50 [29]: 5.82
pIC50 [30]: 6.11
pIC50 [31]: 6.07
pIC50 [32]: < 5.70
pIC50 [33]: 5.93
pIC50 [34]: 6.28
pIC50 [35]: < 5.70
pIC50 [36]: 5.88
pIC50 [37]: < 5.70
pIC50 [38]: 5.81
pIC50 [39]: < 5.70
pIC50 [40]: 6.56
pIC50 [41]: 5.77
pIC50 [42]: 5.84
pIC50 [43]: < 5.70
pIC50 [44]: 5.83
pIC50 [45]: 5.74
pIC50 [46]: 6.37
pIC50 [47]: 6.49
pIC50 [48]: 5.76
pIC50 [49]: < 5.70
pIC50 [50]: 6.37

CO[C@H]1C[C@@H]2CC[C@@H](C)[C@@](O)(O2)C(=O)C(=O)N2CCCC[C@H]2C(=O)O[C@H]([C@H](C)C[C@@H]2CC[C@@H](O)[C@H](OC)C2)CC(=O)[C@H](C)/C=C(\C)[C@@H](O)[C@@H](OC)C(=O)[C@H](C)C[C@H](C)/C=C/C=C/C=C/1C [SIROLIMUS]
pIC50 [1]: < 7.00
pIC50 [2]: < 7.00
pIC50 [4]: < 7.00
pIC50 [6]: < 7.00
pIC50 [7]: < 7.00
pIC50 [11]: 7.27
pIC50 [15]: < 7.00
pIC50 [51]: < 7.00
pIC50 [19]: < 7.00
pIC50 [20]: < 7.00
pIC50 [21]: < 7.00
pIC50 [23]: < 7.00
pIC50 [24]: < 7.00
pIC50 [32]: < 7.00
pIC50 [33]: < 7.00
pIC50 [34]: 9.07
pIC50 [35]: < 7.00
pIC50 [52]: < 7.00
pIC50 [37]: < 7.00
pIC50 [39]: < 7.00
pIC50 [40]: 8.20
pIC50 [41]: 8.56
pIC50 [43]: < 7.00
pIC50 [46]: < 7.00
pIC50 [49]: < 7.00

From ChEMBL document CHEMBL1201861, “Genomics of Drug Sensitity in Cancer screening data, Wellcome Trust Sanger Institute”
